Measured values reported in the NIST ThermoML archive (doi:10.1016/j.fluid.2008.10.008).
Several values for one entry are separate records, joined by “and”; a condition that tells them apart may be missing. Equal entries are not always repeated. Numbers after ± are expanded uncertainties.

Assay: activity coefficient (dimensionless); of the first substance listed, at infinite dilution; xn = mol fraction of the nth substance listed
Settings: 101 kPa, Liquid, Chromatography, x1 = 0

Row | SMILES | activity coefficient (328.15 K) | activity coefficient (333.15 K) | activity coefficient (338.15 K) | activity coefficient (343.15 K)
1 | C=CCCCCC [1-heptene] + CCCC[n+]1ccc(C)cc1.Cc1ccc(S(=O)(=O)[O-])cc1 | 28.7 and 29.2 | 29.5 and 28.2 | 27.2 and 27.9 | 28 and 27.5
2 | C#CCCCCC [1-heptyne] + CCCC[n+]1ccc(C)cc1.Cc1ccc(S(=O)(=O)[O-])cc1 | 5.76 and 5.88 | 6.03 and 5.9 | 6.01 and 5.98 | 6.14 and 6
3 | C#CCCCC [1-hexyne] + CCCC[n+]1ccc(C)cc1.Cc1ccc(S(=O)(=O)[O-])cc1 | 4.25 and 4.19 | 4.43 and 4.26 | 4.37 and 4.61 | 4.8 and 4.36
4 | C#CCCCCCC [1-octyne] + CCCC[n+]1ccc(C)cc1.Cc1ccc(S(=O)(=O)[O-])cc1 | 8.01 and 8.11 | 8.45 and 8.13 | 8.27 and 8.18 | 8.56 and 8.3
5 | C=CCCC [1-pentene] + CCCC[n+]1ccc(C)cc1.Cc1ccc(S(=O)(=O)[O-])cc1 | 16.8 and 15.3 | 16.1 and 14.8 | 15.3 and 15.5 | 15.7 and 14.2
6 | C#CCCC [1-pentyne] + CCCC[n+]1ccc(C)cc1.Cc1ccc(S(=O)(=O)[O-])cc1 | 3.05 and 3.09 | 3.37 and 3.06 | 3.36 and 3.2 | 3.38 and 3.41
7 | c1ccccc1 [benzene] + CCCC[n+]1ccc(C)cc1.Cc1ccc(S(=O)(=O)[O-])cc1 | 4.01 ± 0.18 | 3.92 and 4 | 3.97 and 3.95 | 3.94 and 3.97
8 | C1CCCCCC1 [cycloheptane] + CCCC[n+]1ccc(C)cc1.Cc1ccc(S(=O)(=O)[O-])cc1 | 21.2 and 23.4 | 20.8 ± 1 | 20 ± 0.9 | 19.8 and 19.9
9 | C1CCCCC1 [cyclohexane] + CCCC[n+]1ccc(C)cc1.Cc1ccc(S(=O)(=O)[O-])cc1 | 18.6 and 20.6 | 18 and 18.1 | 17.5 ± 0.8 | 16.9 and 17
10 | C1CCCCCCC1 [cyclooctane] + CCCC[n+]1ccc(C)cc1.Cc1ccc(S(=O)(=O)[O-])cc1 | 26.2 and 28.4 | 25.2 and 25 | 23.7 and 24.6 | 23.6 and 24.5
11 | C1CCCC1 [cyclopentane] + CCCC[n+]1ccc(C)cc1.Cc1ccc(S(=O)(=O)[O-])cc1 | 13.6 and 12.5 | 12.4 and 12.8 | 11.7 and 12 | 11.9 and 11.7
12 | CCO [ethanol] + CCCC[n+]1ccc(C)cc1.Cc1ccc(S(=O)(=O)[O-])cc1 | 0.905 and 0.893 | 0.895 and 0.881 | 0.88 and 0.87 | 0.871 and 0.863
13 | CCCCCCC [heptane] + CCCC[n+]1ccc(C)cc1.Cc1ccc(S(=O)(=O)[O-])cc1 | 53 and 55 | 51.8 and 51 | 50.6 and 50.4 | 49.3 and 49.5
14 | C=CCCCC [hex-1-ene] + CCCC[n+]1ccc(C)cc1.Cc1ccc(S(=O)(=O)[O-])cc1 | 21.2 and 21.1 | 20.7 and 20.1 | 20.3 and 19.5 | 20 and 20.1
15 | CCCCCC [hexane] + CCCC[n+]1ccc(C)cc1.Cc1ccc(S(=O)(=O)[O-])cc1 | 37.3 and 38.9 | 37.2 ± 1.7 | 36 ± 1.7 | 36.9 and 37.1
16 | CO [methanol] + CCCC[n+]1ccc(C)cc1.Cc1ccc(S(=O)(=O)[O-])cc1 | 0.555 and 0.542 | 0.545 and 0.542 | 0.541 and 0.536 | 0.548 and 0.527
17 | C=CCCCCCC [oct-1-ene] + CCCC[n+]1ccc(C)cc1.Cc1ccc(S(=O)(=O)[O-])cc1 | 39.7 and 40.6 | 39.7 and 39.2 | 38.7 and 38.9 | 37.8 and 38
18 | CCCCCCCC [octane] + CCCC[n+]1ccc(C)cc1.Cc1ccc(S(=O)(=O)[O-])cc1 | 71.6 and 75.8 | 71.3 and 70.6 | 67.8 and 68.4 | 68.7 and 68.9
19 | CCCCC [pentane] + CCCC[n+]1ccc(C)cc1.Cc1ccc(S(=O)(=O)[O-])cc1 | 27.6 and 28.7 | 27.5 and 27.8 | 27.7 and 27.8 | 27.3 and 27.4
